We go through 10 compounds from patent US5750648A, “Retroviral protease inhibitors and combinations thereof” (G.D. Searle & Co., priority 1994, dated 1998).

In one assay the target is HIV protease (Human immunodeficiency virus type 1 group M subtype B, UniProt P04585). Description: HIV protease enzyme assay (fluorescent substrate 2-aminobenzoyl-Ile-Nle-Phe(p-NO2)-Gln-ArgNH2). To be noted: @ 10 μM; read-out: inhibition of HIV protease (IC50). In kind it is biochemical. An excerpt: The compounds of the present invention are advantageously effective HIV protease inhibitors. Utilizing an enzyme assay as described below, the compounds set forth in the examples herein disclosed inhibited the HIV enzyme. The preferred compounds of the present invention and their calculated IC50 (the concentration at which the inhibitor compound reduces enzyme activity by 50%) values are shown in Table 2.
The enzyme method is as follows. The substrate is 2-aminobenzoyl-Ile-Nle-Phe(p-NO2)-Gln-ArgNH2. The positive control is MVT-101 (Miller, M. et al, Science, 246, 1149 (1989)). The assay buffer is 20 mM sodium phosphate, pH 6.4, 20% glycerol, 1 mM EDTA, 1 mM DTT and 0.1% CHAPS. The substrate is dissolved in DMSO, then diluted 10 fold in assay buffer. Final substrate concentration in the assay is about 80 μM. HIV protease is diluted in the assay buffer to a final enzyme concentration of about 12.3 nanomolar, based on a molecular weight of 10,780.
The final concentration of DMSO is about 14% and the final concentration of glycerol is about 18%. The test compound is dissolved in DMSO and diluted in DMSO to ten times (10×) the test concentration. Ten microliters (10 μL) of the enzyme preparation is added, the materials mixed and then the mixture is incubated at ambient temperature for 15 minutes. The enzyme reaction is initiated by the addition of 40 μL of substrate. The increase in fluorescence is monitored at 4 time points (0, 8, 16 and 24 minutes) at ambient temperature. Each assay is carried out in duplicate wells.
For `CC(C)CCN(C[C@@H](O)[C@H](Cc1ccccc1)NC(=O)[C@@H](NC(=O)[C@@H]1CCCN1C(=O)OC(C)(C)C)C(C)(C)C)C(=O)NC(C)(C)C` [Example 21, (2R, 3S)-3-(N-tert-butoxycarbonyl-L-prolyl-L-tert-butylglycinyl) amino-1-[N-isoamyl-N-(tert-butylcarbamoyl)]amino-4-phenyl-2-butanol], the inhibition at 10 µM came out at 61%.

Still in this assay, the particulars now being: concentration at which the inhibitor reduces enzyme activity by 50%; enzyme about 12.3 nanomolar, substrate about 80 μM, pH 6.4.
`CNCC(=O)N[C@H](C(=O)N[C@@H](Cc1ccccc1)[C@H](O)CN(CCC(C)C)C(=O)NC(C)(C)C)C(C)(C)SC` [5 (Part I), (2R, 3S)-3-(N-methylaminoacetyl-S-methyl-L-penicillaminyl)amido-1-[N-isoamyl-N-(tert-butylcarbamoyl)]amino-4-phenyl-2-butanol] had an IC50 of 14 nM.
Regarding `CC(C)CCN(C[C@@H](O)[C@H](Cc1ccccc1)NC(=O)[C@@H](NC(=O)[C@@H](C)N(C)C(=O)OCc1ccccc1)C(C)(C)C)C(=O)NC(C)(C)C` [Example 15, (2R, 3S)-3-(N-benzyloxycarbonyl-N-methyl-D-alaninyl-L-tert-butylglycinyl)amino-1-[N-isoamyl-N-(tert-butylcarbamoyl)]amino-4-phenyl-2-butanol], the IC50 was determined as 70 nM. Compared with the last compound, the IC50 is about 5-fold higher.
Still for that read-out and setting: the result for `CC(C)CCN(C[C@@H](O)[C@H](Cc1ccccc1)NC(=O)[C@@H](NC(=O)CNC(=O)OC(C)(C)C)C(C)(C)C)C(=O)NC(C)(C)C` [Example 17, (2R, 3S)-3-(N-tert-butoxycarbonyl-glycinyl-L-tert-butylglycinyl) amino-1-[N-isoamyl-N-(tert-butylcarbamoyl)]amino-4-phenyl-2-butanol] reads 10 nM; that for `CC(C)CCN(C[C@@H](O)[C@H](Cc1ccccc1)NC(=O)[C@@H](NC(=O)[C@@H]1CCCN1C(=O)OCc1ccccc1)C(C)(C)C)C(=O)NC(C)(C)C` [Example 19, (2R, 3S)-3-(N-benzyloxycarbonyl-L-prolyl-L-tert-butylglycinyl) amino-1-[N-isoamyl-N-(tert-butylcarbamoyl)]amino-4-phenyl-2-butanol], 2200 nM.
`CC(C)CCN(C[C@@H](O)[C@H](Cc1ccccc1)NC(=O)[C@@H](NC(=O)[C@@H]1CCCN1)C(C)(C)C)C(=O)NC(C)(C)C` [Example 20, (2R, 3S)-3-(L-prolyl-L-tert-butylglycinyl)amino-1-[N-isoamyl-N-(tert-butylcarbamoyl)]amino-4-phenyl-2-butanol] yielded a half-inhibitory concentration (IC50) of 9 nM.
In the case of `CC[C@H](C)[C@H](NC(=O)[C@@H](C)N(C)C(=O)OCc1ccccc1)C(=O)N[C@@H](Cc1ccccc1)[C@H](O)CN(CCC(C)C)C(=O)NC(C)(C)C` [Example 22, (2R, 3S)-3-(N-benzyloxycarbonyl-N-methyl-D-alaninyl-L-isoleucinyl)amino-1-[N-isoamyl-N-(tert-butylcarbamoyl)]amino-4-phenyl-2-butanol], half-maximal inhibition (IC50) was put at 370 nM. This IC50 lies about 41-fold higher than the previous one.
Regarding `CC[C@H](C)[C@H](NC(=O)[C@@H](C)NC)C(=O)N[C@@H](Cc1ccccc1)[C@H](O)CN(CCC(C)C)C(=O)NC(C)(C)C` [Example 23, (2R, 3S)-3-(N-methyl-D-alaninyl-L-isoleucinyl)amino-1-[N-isoamyl-N-(tert-butylcarbamoyl)]amino-4-phenyl-2-butanol], the IC50 came to 79 nM.
As to `CC[C@H](C)[C@H](NC(=O)[C@@H]1CCCN1C(=O)OCc1ccccc1)C(=O)N[C@@H](Cc1ccccc1)[C@H](O)CN(CCC(C)C)C(=O)NC(C)(C)C` [Example 24, (2R, 3S)-3-(N-benzyloxycarbonyl-L-prolyl-L-isoleucinyl)amino-1-[N-isoamyl-N-(tert-butylcarbamoyl)]amino-4-phenyl-2-butanol], the IC50 is 520 nM.
For the compound `CC[C@H](C)[C@H](NC(=O)[C@@H]1CCCN1)C(=O)N[C@@H](Cc1ccccc1)[C@H](O)CN(CCC(C)C)C(=O)NC(C)(C)C` [Example 25, (2R, 3S)-3-(L-prolyl-L-isoleucinyl)amino-1-[N-isoamyl-N-(tert-butylcarbamoyl)]amino-4-phenyl-2-butanol], inhibition was half-maximal at 51 nM (IC50).

The term inhibition denotes the relative decrease from the control value, in per cent. As usually defined, the IC50 is the concentration that inhibits the measured activity by half. A high value points to weaker potency.
